Results taken from US9133217B2 (Salix Pharmaceuticals, Ltd, priority 2011, dated 2015).
Entries after “also recorded” stand apart in the source; their conditions may differ. Like-named read-outs stand apart in the source and are kept apart here.

How the values were obtained:
Format in all cases: physicochemical
[1] = Rifaximin drying experiments, resulting solid form by XRPD
Experimental: (§1) X-ray powder diffraction (XRPD) analyses were performed using an Inel XRG-3000 diffractometer equipped with a CPS (Curved Position Sensitive) detector with a […] of 120°. Real time data were collected using Cu—Kα radiation. The tube voltage and amperage were set to 40 kV and 30 mA, respectively. The monochromator slit was set at 1-5 mm by 160 μm. […] Samples were prepared for analysis by packing them into thin-walled glass capillaries. Each capillary was mounted onto a goniometer head that is motorized to permit spinning of the capillary during data acquisition. The samples were analyzed for 300 seconds. Instrument calibration was performed using a silicon reference standard.

[2] = Moisture sorption/desorption (dynamic vapor sorption, DVS); conditions: for weight gain from 5 to 95% RH / weight gain (adsorption) from 5 to 95% RH: sorption 5 to 95% RH; for hygroscopicity (in words): from moisture sorption/desorption; for Post-DVS XRPD (solid form after moisture sorption): specimen after DVS cycle 5-95-5% RH
Experimental: Automated vapor sorption (VS) data were collected on a VTI SGA-100 Vapor Sorption Analyzer. NaCl and PVP were used as calibration standards. Samples were not dried prior to analysis. Sorption and desorption data were collected over a range from 5 to 95% RH at 10% RH increments under a nitrogen purge. The equilibrium criterion used for analysis was less than 0.0100% weight change in 5 minutes with a maximum equilibration time of 3 hours. Data were not corrected for the initial moisture content of the samples.
Moisture sorption/desorption data were collected on a VTI SGA-100 Vapor Sorption Analyzer. Sorption and desorption data were collected over a range of 5% to 95% relative humidity (RH) at 10% RH intervals under a nitrogen purge. Samples were not dried prior to analysis. Equilibrium criteria used for analysis were less than 0.0100% weight change in 5 minutes, with a maximum equilibration time of 3 hours if the weight criterion was not met. Data were not corrected for the initial moisture content of the samples. NaCl and PVP were used as calibration standards.

[3] = Stressing under various relative humidities / temperature and vacuum, resulting solid form by XRPD
Experimental: The jar was sealed and stored at either ambient temperature or in an oven at elevated temperature.
as §1
Samples were also analyzed using a PANalytical X'Pert Pro diffractometer. The specimen was analyzed using Cu radiation produced using an Optix long fine-focus source. An elliptically graded multilayer mirror was used to focus the Cu K α X-rays of the source through the specimen and onto the detector. The specimen was sandwiched between 3-micron thick films, analyzed in transmission geometry, and rotated to optimize orientation statistics. A beam-stop and a helium purge were used to minimize the background generated by air scattering. Soller slits were used for the incident and diffracted beams to minimize axial divergence. Diffraction patterns were collected using a scanning position-sensitive detector (X'Celerator) located 240 mm from the specimen […] a silicon specimen (NIST standard reference material 640c) was analyzed to verify the position of the silicon 111 peak.

SMILES: CO[C@H]1/C=C/O[C@@]2(C)Oc3c(C)c(O)c4c(O)c(c5c(nc6cc(C)ccn65)c4c3C2=O)NC(=O)/C(C)=C\C=C\[C@H](C)[C@H](O)[C@@H](C)[C@@H](O)[C@@H](C)[C@H](OC(C)=O)[C@@H]1C [Form Eta, Rifaximin]
- XRPD Form after drying ([1]; vac oven, 40° C., 1 day, listed as η): η

SMILES: CO[C@H]1/C=C/O[C@@]2(C)Oc3c(C)c(O)c4c(O)c(c5c(nc6cc(C)ccn65)c4c3C2=O)NC(=O)/C(C)=C\C=C\[C@H](C)[C@H](O)[C@@H](C)[C@@H](O)[C@@H](C)[C@H](OC(C)=O)[C@@H]1C [Form Gamma, Rifaximin, reference compound]
- weight loss from 95 to 5% RH ([2]; DVS, desorption 95 to 5% RH, listed as Rifaximin Form Gamma): 11.7%
- initial weight loss upon equilibration at 5% RH ([2]; DVS, equilibration at 5% RH, listed as Rifaximin Form Gamma): 2.4%
- weight gain from 5 to 95% RH ([2]; DVS, listed as Rifaximin Form Gamma): 10.8%
- hygroscopicity (in words) ([2]; listed as Rifaximin Form Gamma): hygroscopic
- XRPD Form after drying ([1]; vac oven / under vacuum, ambient, 1 day, listed as Form γ): remained unchanged

SMILES: CO[C@H]1/C=C/O[C@@]2(C)Oc3c(C)c(O)c4c(O)c(c5c(nc6cc(C)ccn65)c4c3C2=O)NC(=O)/C(C)=C\C=C\[C@H](C)[C@H](O)[C@@H](C)[C@@H](O)[C@@H](C)[C@H](OC(C)=O)[C@@H]1C [Form Mu, Rifaximin]
- XRPD result after stress ([3]; 59-62° C./Vacuum, ~24 hours): γ
- XRPD result after stress ([3]; 60° C./Vacuum, ~24 hours, listed as Form μ): irreversibly desolvates to Form Gamma; also recorded: irreversibly desolvates to Form γ
- XRPD result after stress ([3]; 60° C./Vacuum, ~24 hours, listed as Rifaximin Form μ): γ
- XRPD result after stress ([3]; 97% RH (RT), 16 days, listed as Form μ): converted to Form Beta
- XRPD result after stress ([3]; 97% RH (RT), 16 days, listed as Rifaximin Form μ): μ + β
- weight loss from 95 to 5% RH ([2]; DVS, desorption 95 to 5% RH, listed as rifaximin Form μ): 9.3%
- initial weight loss upon equilibration at 5% RH ([2]; DVS, equilibration at 5% RH, listed as rifaximin Form μ): 11.0%
- weight gain from 5 to 95% RH ([2]; DVS, listed as rifaximin Form μ): 9.5%
- % wt lost from 95%-5% RH ([2]; moisture balance, desorption): 9.3 % wt lost from 95%-5% RH
- % wt change upon equilibration at 5% RH ([2]; moisture balance, equilibration at 5% RH, signed change): −11.0 % wt change upon equilibration at 5% RH
- % wt gain from 5%-95% RH ([2]; moisture balance, sorption): 9.5 % wt gain from 5%-95% RH
- Post-DVS XRPD (solid form after moisture sorption) ([2]; listed as Rifaximin Form Mu): Form γ
- Post-DVS XRPD (solid form after moisture sorption) ([2]; listed as rifaximin Form μ): converted to Form Gamma

SMILES: CO[C@H]1/C=C/O[C@@]2(C)Oc3c(C)c(O)c4c(O)c(c5c(nc6cc(C)ccn65)c4c3C2=O)NC(=O)/C(C)=C\C=C\[C@H](C)[C@H](O)[C@@H](C)[C@@H](O)[C@@H](C)[C@H](OC(C)=O)[C@@H]1C [Form Omicron, Rifaximin]
- wt % change on equilibration at 5% RH [2]: −15.0 wt % change on equilibration at 5% RH
- initial weight loss at 5% RH upon equilibration ([2]; DVS, equilibration at 5% RH, listed as Rifaximin Form Omicron): ~15 wt %
- Post-DVS XRPD (solid form after moisture sorption) ([2]; listed as Rifaximin Form Omicron): Form Iota with a significant amount of disorder

SMILES: CO[C@H]1/C=C/O[C@@]2(C)Oc3c(C)c(O)c4c(O)c(c5c(nc6cc(C)ccn65)c4c3C2=O)NC(=O)/C(C)=C\C=C\[C@H](C)[C@H](O)[C@@H](C)[C@@H](O)[C@@H](C)[C@H](OC(C)=O)[C@@H]1C [Form Pi, Rifaximin]
- weight lost from 95 to 5% RH ([2]; DVS, desorption 95 to 5% RH): 11.3 wt % lost from 95 to 5% RH
- weight loss from 95 to 5% RH ([2]; DVS, desorption 95 to 5% RH, listed as Rifaximin Form Pi): 11.3%
- initial weight loss at 5% RH upon equilibration ([2]; DVS, equilibration at 5% RH): 1.3 wt %
- wt % change on equilibration at 5% RH ([2]; DVS, equilibration at 5% RH, signed change): −1.3 wt % change on equilibration at 5% RH
- weight gain (adsorption) from 5 to 95% RH ([2]; DVS, listed as Rifaximin Form Pi): 10.5 wt %
- weight gain (adsorption) from 5 to 95% RH ([2]; DVS, listed as Rifaximin Pi): 10.5 wt % gain from 5 to 95% RH
- hygroscopicity (in words) ([2]; listed as Rifaximin Form Pi): reversibly hygroscopic
- Post-DVS XRPD (solid form after moisture sorption) ([2]; listed as Rifaximin Form Pi): Form Pi
- Post-DVS XRPD (solid form after moisture sorption) ([2]; listed as Rifaximin Pi): Pi

SMILES: CO[C@H]1/C=C/O[C@@]2(C)Oc3c(C)c(O)c4c(O)c(c5c(nc6cc(C)ccn65)c4c3C2=O)NC(=O)/C(C)=C\C=C\[C@H](C)[C@H](O)[C@@H](C)[C@@H](O)[C@@H](C)[C@H](OC(C)=O)[C@@H]1C [Form Theta, Rifaximin, reference compound]
- form after exposure to humidity (XRPD) ([3]; 75% RH (40° C.), 6 hrs): μ + η
- form after exposure to humidity (XRPD) ([3]; 75% RH (RT), 6 hrs): convert at least partially to Form μ
- form after exposure to humidity (XRPD) ([3]; 75% RH (RT), 6 hrs, listed as Rifaximin Form Theta): convert to Form μ
- form after exposure to humidity (XRPD) ([3]; 75% RH (RT), 6 hrs, listed as θ): μ + ι

SMILES: CO[C@H]1/C=C/O[C@@]2(C)Oc3c(C)c(O)c4c(O)c(c5c(nc6cc(C)ccn65)c4c3C2=O)NC(=O)/C(C)=C\C=C\[C@H](C)[C@H](O)[C@@H](C)[C@@H](O)[C@@H](C)[C@H](OC(C)=O)[C@@H]1C [Form Xi, Rifaximin]
- weight loss from 95 to 5% RH ([2]; DVS, desorption 95 to 5% RH, listed as rifaximin Form Xi): 10.5%
- initial weight loss upon equilibration at 5% RH ([2]; DVS, equilibration at 5% RH, listed as rifaximin Form Xi): 7.2%
- weight gain from 5 to 95% RH ([2]; DVS, listed as rifaximin Form Xi): 7.9%
- Post-DVS XRPD (solid form after moisture sorption) ([2]; listed as rifaximin Form Xi): became disordered

SMILES: CO[C@H]1/C=C/O[C@@]2(C)Oc3c(C)c(O)c4c(O)c(c5c(nc6cc(C)ccn65)c4c3C2=O)NC(=O)/C(C)=C\C=C\[C@H](C)[C@H](O)[C@@H](C)[C@@H](O)[C@@H](C)[C@H](OC(C)=O)[C@@H]1C [Form Zeta, Rifaximin]
- XRPD Form after stressing ([3]; 43% RH, 3 days, room temperature): conversion to Form γ
- XRPD Form after stressing ([3]; 43% RH, 3 days, room temperature, listed as Form ζ): conversion to Form γ
- XRPD Form after stressing ([3]; 43% RH, 3 days, room temperature, listed as ζ): γ
- form after exposure to humidity (XRPD) ([3]; 51% RH (RT), ~20 min): converts to Form Mu
- form after exposure to humidity (XRPD) ([3]; 51% RH (RT), ~20 min, listed as ζ): μ
- XRPD Form after stressing ([3]; 58% RH, 3 days, room temperature, listed as ζ): ζ
- XRPD Form after stressing ([3]; 75% RH, 3 days, room temperature, listed as ζ): ζ
- XRPD Form after stressing ([3]; 94% RH, 3 days, room temperature, listed as Form ζ): Form γ+γ−1
- XRPD Form after stressing ([3]; 94% RH, 3 days, room temperature, listed as ζ): β + ζ
- XRPD Form after stressing ([3]; stability chamber 75% RH @40° C., 1 day): ζ + Y
- XRPD Form after drying ([1]; air dry): γ
- XRPD Form after drying ([1]; open vial in hood): γ
- XRPD Form after storage ([1]; stored in refrigerator 3 weeks): ζ
- XRPD Form after drying ([1]; vac dry): γ + η
- XRPD Form after drying ([1]; vac oven / under vacuum, ambient, 1 day): Form η
- XRPD Form after drying ([1]; vac oven / under vacuum, ambient, 1 day, listed as ζ): η
- XRPD Form after drying ([1]; vac oven, 40° C., 1 day): remained unchanged
- XRPD Form after drying ([1]; vac oven, 45° C., 2 days): η

SMILES: CO[C@H]1/C=C/O[C@@]2(C)Oc3c(C)c(O)c4c(O)c(c5c(nc6cc(C)ccn65)c4c3C2=O)NC(=O)/C(C)=C\C=C\[C@H](C)[C@H](O)[C@@H](C)[C@@H](O)[C@@H](C)[C@H](OC(C)=O)[C@@H]1C [α dry, Rifaximin, reference compound]
- XRPD Form after stressing ([3]; 58% RH, 2 days, room temperature): β
- XRPD Form after stressing ([3]; 75% RH, 2 days, room temperature): β
- XRPD Form after stressing ([3]; 94% RH, 2 days, room temperature): β

SMILES: CO[C@H]1/C=C/O[C@@]2(C)Oc3c(C)c(O)c4c(O)c(c5c(nc6cc(C)ccn65)c4c3C2=O)NC(=O)/C(C)=C\C=C\[C@H](C)[C@H](O)[C@@H](C)[C@@H](O)[C@@H](C)[C@H](OC(C)=O)[C@@H]1C [α, Rifaximin, reference compound]
- XRPD Form after stressing ([3]; P205, 4 days, room temperature): α dry
